Measurements: PMC9743426, “Expanding the Chemical Space of Drug-like Passerini Compounds: Can α-Acyloxy Carboxamides Be Considered Hard Drugs?” (ACS Medicinal Chemistry Letters, 2022)

What was measured:
[1] = Hydrolytic stability in mouse liver microsomes (MLM); format: in vitro ADME; settings: 30 min; for Residual substrate percentage, MLM: mouse liver microsomes 1.0 mg/mL protein, substrate 10 μM, 37 °C
Method: (§1) For all 43 compounds, a first evaluation of their chemical and metabolic stabilities toward hydrolysis was performed by incubating them in buffer under physiological conditions (50 mM Tris-HCl, pH 7.4) and in mouse liver microsomes (Table 1). This model was chosen because, similar to the human liver, both of the carboxylesterase isoforms are present. […] A more interesting trend was instead possible to observe with benzoic acids.
(§2) Hydrolytic stability in MLM and HLM
(§3) The standard incubation mixture (200 µL final volume) was carried out in a 50 mM TRIS-HCl buffer (pH 7.4) containing 150 mM KCl, tween 80 as cosolvent (0.8 mg/mg protein), and the substrate (10 μM). After pre-equilibration of the mixture, an appropriate volume of MLM or HLM suspension was added to give a final protein concentration of 1.0 mg/mL. The mixture was shaken for 30 minutes at 37 °C. Control incubations were carried out without the presence or microsomes or in pure acetonitrile. Each incubation was stopped by the addition of 200 µL ice-cold acetonitrile, vortexed and centrifuged at 13000 rpm for 5 min. The supernatants were analyzed by LC-HRMS. […]

[2] = Hydrolytic (chemical) stability in Tris-HCl buffer pH 7.4; format: physicochemical; settings: 50 mM Tris-HCl buffer pH 7.4, incubation 30 min, without microsomes
Method: as §1, §2, §3

[3] = Hydrolytic stability in human liver microsomes (HLM); format: in vitro ADME; settings: for Residual substrate percentage, HLM: human liver microsomes 1.0 mg/mL protein, substrate 10 μM, 37 °C; for Residual substrate percentage, HLM / Hydrolytic stability in human liver microsomes (in words): 30 min; for Hydrolytic stability toward esterases (in words): liver microsomes, species stated only for the stable ester (human liver)
Method: This was made in light of the fact that the overall metabolizing capability of murine hepatic enzymes, including carboxylesterases, is supposed to be higher compared to the human ones.[17]
as §2, §3

| SMILES | Residual substrate percentage, MLM [1] [%] | Hydrolysis of the ester group in mouse liver microsomes (in words) [1] | Residual substrate percentage, buffer [2] [%] | Residual substrate percentage, HLM [3] [%] | Hydrolytic stability in human liver microsomes (in words) [3] | Hydrolytic stability toward esterases (in words) [3] | Hydrolytic stability toward esterases (in words) ([3]; listed as methyl 2,6-dimethylbenzoate) |
| --- | --- | --- | --- | --- | --- | --- | --- |
| CC(=O)OC(C(=O)NC(C)(C)C)C(C)C (centres unmarked) [Compound 70] | 5 | easily hydrolyzed | 94 | – | – | – | – |
| CC(C)(C)NC(=O)COC(=O)c1ccccc1Cl [Compound 90] | <1 | the hydrolysis of the ester was complete | >99 | – | – | – | – |
| CC(C)(C)NC(=O)COC(=O)c1ccccc1Br [Compound 86] | <1 | the hydrolysis of the ester was complete | >99 | – | – | – | – |
| CC(C)(C)NC(=O)COC(=O)C(C)(C)c1ccc(Br)cc1 [Compound 91] | 12 | easily hydrolyzed | >99 | – | – | – | – |
| CCCCCCC(OC(=O)c1ccccc1)C(=O)NC(C)(C)C (centres unmarked) [Compound 60] | <1 | – | 93 | – | – | – | – |
| CC(C)(C)NC(=O)COC(=O)c1c(Cl)cccc1C(F)(F)F [Compound 96] | >99 | – | >99 | – | – | – | – |
| CC(C)C(OC(=O)CCCCCc1ccccc1)C(=O)NC(C)(C)C (centres unmarked) [Compound 75, 1-(tert-butylamino)-3-methyl-1-oxobutan-2-yl 6-phenylhexanoate] | <1 | easily hydrolyzed | >99 | – | – | – | – |
| CC(C)C(OC(=O)C(C)(C)C)C(=O)NC(C)(C)C (centres unmarked) [Compound 73] | 30 | easily hydrolyzed | >99 | 52 | moderately more stable | – | – |
| CC(C)(C)NC(=O)COC(=O)C12CC3CC(CC(C3)C1)C2 [Compound 97] | 1 | rapidly metabolized | >99 | 2 | instability | – | – |
| CC(C)(C)NC(=O)COC(=O)c1c(Cl)cccc1Cl [Compound 95] | 78 | – | >99 | – | – | – | – |
| CC(C)C(OC(=O)c1ccc(Cl)cc1)C(=O)NC(C)(C)C (centres unmarked) [Compound 68] | <1 | – | >99 | – | – | – | – |
| CC(C)C(OC(=O)/C=C/c1ccccc1)C(=O)NC(C)(C)C (centres unmarked) [Compound 65] | <1 | completely unstable | >99 | 3 | instability | – | – |
| CC(C)(C)NC(=O)COC(=O)C(C)(C)Oc1ccc(Cl)cc1 [Compound 84] | <1 | completely unstable | >99 | 2 | instability | – | – |
| CCCCCC(=O)OC(C(=O)NC(C)(C)C)C(C)C (centres unmarked) [Compound 71] | <1 | easily hydrolyzed | 91 | – | – | – | – |
| CC(C)(C)NC(=O)COC(=O)c1c(F)cccc1F [Compound 85] | <1 | completely hydrolyzed | >99 | – | – | – | – |
| CC(C)(C)NC(=O)COC(=O)C(=O)c1ccccc1 [Compound 83] | <1 | completely unstable | <1 | – | – | – | – |
| CC(C)C(OC(=O)Cc1ccccc1)C(=O)NC(C)(C)C (centres unmarked) [Compound 74, 1-(tert-butylamino)-3-methyl-1-oxobutan-2-yl 2-phenylacetate] | 17 | easily hydrolyzed | >99 | – | – | – | – |
| COC(=O)c1c(C)cccc1C [Compound 12, methyl 2,6-dimethylbenzoate, reference compound] | 77 | – | > 99 | > 99 | – | stable toward esterases | completely resistant to esterases |
| COC(=O)c1ccccc1 [Compound 11, methyl benzoate, reference compound] | < 1 | – | > 99 | < 1 | – | – | – |
| Cc1c(Br)cccc1C(=O)OCC(=O)NC(C)(C)C [Compound 89] | 1 | the hydrolysis of the ester was complete | >99 | <1 | easy hydrolysis | – | – |
